≈ marks a conversion by molar mass, not a printed value. Calls of active or inactive are those of the source. The calls are words filed in the database; no cut-off is given here.

From ChEMBL document CHEMBL3861965, “Stereochemical Assignment and Biological Evaluation of BE-14106 Unveils the Importance of One Acetate Unit for the Antifungal Activity of Polyene Macrolactams” (J Nat Prod, 2016) come the findings set out here.

Common to all, as to assay type: functional
Test [1] is described as follows: Antifungal activity against wild type fission yeast JY1 after 24 hrs by XTT assay. To be noted: Schizosaccharomyces pombe. (In general: Tetrazolium dyes change colour on reduction, which living cells bring about.)
Test [2] in a line: Antifungal activity against fission yeast harboring deltaerg2 mutant after 24 hrs by turbidity assay. The settings on record: Schizosaccharomyces pombe.
The nature of test [3]: Antifungal activity against fission yeast harboring deltaerg31/deltaerg32 mutant after 24 hrs by turbidity assay. To be noted: Schizosaccharomyces pombe.
A short description of test [4]: Antifungal activity against fission yeast harboring deltaerg5 mutant after 24 hrs by turbidity assay. The settings on record: Schizosaccharomyces pombe.
Test [5] is described as follows: Antifungal activity against fission yeast harboring deltasts1/erg4 mutant after 24 hrs by turbidity assay. To be noted: Schizosaccharomyces pombe.
The nature of test [6]: Antifungal activity against wild type fission yeast JY1 after 24 hrs by turbidity assay. To be noted: Schizosaccharomyces pombe.
The subject of test [7] is Schizosaccharomyces pombe. Put plainly: Antifungal activity against wild type fission yeast JY1 assessed as accumulation of cell wall material at 0.25 uM after 2 hrs by cfw-dye based fluorescence microscopic analysis.

Consider `C[C@@H]1[C@H](O)[C@@H](C)/C=C/C=C/C=C/C=C/C=C/C=C/C=C/[C@H](O[C@@H]2O[C@H](C)[C@@H](O)[C@H](N)[C@@H]2O)C[C@@H]2O[C@](O)(C[C@@H](O)C[C@@H](O)[C@H](O)CC[C@@H](O)C[C@@H](O)CC(=O)O[C@H]1C)C[C@H](O)[C@H]2C(=O)O`, for which the lowest concentration to inhibit growth in test [1] (MIC) was 270 nM (≈ 0.25 µg/mL).

Regarding `CCC/C=C/C=C/C[C@@H]1C/C=C/C=C(C)/C=C/C=C\[C@@H](O)[C@@H](O)/C=C(C)/C=C/C=C/C(=O)N1`, the MIC in test [2], in test [3], in test [4], in test [5] and in test [6] was 130 to 280 nM (≈ 0.0585 to 0.126 µg/mL) in each case. In test [7], the outcome was Active.
